pKi: −log10 of the molar value.
Columns and labels:
[1] = biological target: Glutamate receptor ionotropic, kainate; assay: Compound was tested for the inhibition of [3H]kainate radioligand binding to Ionotropic glutamate receptor kainate in synaptic plasma membrane prepared from rat forebrain; format: cell membranes, Brain/Plasma
Rattus norvegicus [2] = species on record: Rattus norvegicus; assay: Compound was tested for the inhibition of [3H]D-aspartate radioligand uptake into Synaptosomes in synaptic plasma membrane prepared from rat forebrain; format: functional
Glutamate NMDA receptor [3] = assay: Compound was tested for the inhibition of [3H]L-Glutamate radioligand binding to NMDA receptor in synaptic plasma membrane prepared from rat forebrain; very weak inhibition; format: cell membranes, Brain/Plasma
[4] = biological target: T1, Glutamate receptor ionotropic, AMPA (Rattus norvegicus, UniProt P19490+P19491+P19492+P19493); assay: Compound was tested for the inhibition of [3H]AMPA radioligand binding to Ionotropic glutamate receptor AMPA in synaptic plasma membrane prepared from rat forebrain; very weak inhibition; format: cell membranes, Brain/Plasma
Rattus norvegicus [5] = species on record: Rattus norvegicus; assay: Compound was tested for the inhibition of [3H]D-aspartate radioligand uptake into Synaptosomes in synaptic plasma membrane prepared from rat forebrain; very weak inhibition; format: functional, Brain/Plasma
[6] = biological target: T1, Glutamate receptor ionotropic, AMPA; assay: Compound was tested for the inhibition of [3H]AMPA radioligand binding to Ionotropic glutamate receptor AMPA in synaptic plasma membrane prepared from rat forebrain; format: cell membranes, Brain/Plasma
Glutamate NMDA receptor [7] = assay: Compound was tested for the inhibition of [3H]L-Glutamate radioligand binding to NMDA receptor in synaptic plasma membrane prepared from rat forebrain; format: cell membranes, Brain/Plasma

CC(C)[C@H]1CN[C@H](C(=O)O)[C@H]1CC(=O)O [DIHYDROKAINATE] was tested. Which pKi [1] did it give?
The pKi was 4.80.

What about the pKi (Rattus norvegicus [2]) of the same compound?
Its pKi is 4.52.

What about the pKi (Glutamate NMDA receptor [3]) of the same compound?
The pKi was less than 3.52.

And the pKi [4]?
Its pKi is less than 3.30.

O=C(O)C[C@H]1CCN[C@@H]1C(=O)O [TRANS-CPPA] was tested. Which pKi (Rattus norvegicus [5]) did it give?
The pKi was less than 3.60.

And the pKi [1]?
The pKi was 5.80.

What about the pKi [6] of the same compound?
The pKi was 3.97.

And the pKi (Glutamate NMDA receptor [7])?
The pKi was 6.30.

From ChEMBL document CHEMBL1129115, “The role of the C-4 side chain of kainate and dihydrokainate in EAA receptor and transporter selectivity” (Bioorg Med Chem Lett, 1996)
